In brackets after ≈: the same amount, converted by molar mass.
Tests used:
Vero = test: Cytotoxicity against african green monkey Vero cells; type: cell-based; conditions: Chlorocebus sabaeus
[1] = test system: Mycobacterium tuberculosis; test: Antitubercular activity against Mycobacterium tuberculosis H37Rv after 4 days by MABA assay; type: functional; conditions: 96 h
[2] = Selectivity index, ratio of IC50 for african green monkey Vero cells to MIC for Mycobacterium tuberculosis H37Rv; type: functional
[3] = test system: Mycobacterium tuberculosis; test: Antitubercular activity against Mycobacterium tuberculosis H37Rv at 6.25 ug/mL after 4 days by MABA assay; type: functional; conditions: 96 h

| SMILES | IC50 (Vero) [µg/mL] | MIC [1] [µg/mL] | Selectivity Index [2] | inhibition at 6.25 µg/mL [3] [%] |
| --- | --- | --- | --- | --- |
| CCOC(=O)C1=C(C)N(c2ccccc2)C(C)=C(C(=O)OCC)C1c1cn(-c2ccccc2)nc1-c1ccccc1 | > 10 | 1.56 (≈ 2.85 µM) | >6.4 | 96 |
| CCOC(=O)C1=C(C)N(c2ccccc2C)C(C)=C(C(=O)OCC)C1c1cn(-c2ccccc2)nc1-c1ccccc1 | > 10 | 3.13 (≈ 5.57 µM) | >3.2 | 95 |
| CCOC(=O)C1=C(C)N(c2cccc(C)c2)C(C)=C(C(=O)OCC)C1c1cn(-c2ccccc2)nc1-c1ccccc1 | > 10 | 1.56 (≈ 2.78 µM) | >6.4 | 98 |
| CCOC(=O)C1=C(C)N(c2ccc(C)cc2)C(C)=C(C(=O)OCC)C1c1cn(-c2ccccc2)nc1-c1ccccc1 |  | 48 (≈ 85.5 µM) |  | 48 |
| CCOC(=O)C1=C(C)N(c2ccccc2Cl)C(C)=C(C(=O)OCC)C1c1cn(-c2ccccc2)nc1-c1ccccc1 | > 10 | 0.02 (≈ 0.0344 µM) | >500 | 100 |
| CCOC(=O)C1=C(C)N(c2cccc(Cl)c2)C(C)=C(C(=O)OCC)C1c1cn(-c2ccccc2)nc1-c1ccccc1 | 7.08 (≈ 12.2 µM) | 1.56 (≈ 2.68 µM) | 4.5 | 97 |
| CCOC(=O)C1=C(C)N(c2ccc(Cl)cc2)C(C)=C(C(=O)OCC)C1c1cn(-c2ccccc2)nc1-c1ccccc1 |  |  |  | 74 |
| CCOC(=O)C1=C(C)N(c2ccccc2OC)C(C)=C(C(=O)OCC)C1c1cn(-c2ccccc2)nc1-c1ccccc1 |  |  |  | 39 |
| CCOC(=O)C1=C(C)N(c2cccc(OC)c2)C(C)=C(C(=O)OCC)C1c1cn(-c2ccccc2)nc1-c1ccccc1 |  |  |  | 55 |
| CCOC(=O)C1=C(C)N(c2ccc(OC)cc2)C(C)=C(C(=O)OCC)C1c1cn(-c2ccccc2)nc1-c1ccccc1 |  |  |  | 33 |
| CC(=O)C1=C(C)N(c2ccccc2)C(C)=C(C(C)=O)C1c1cn(-c2ccccc2)nc1-c1ccccc1 |  |  |  | 48 |
| CC(=O)C1=C(C)N(c2ccccc2C)C(C)=C(C(C)=O)C1c1cn(-c2ccccc2)nc1-c1ccccc1 | > 10 | 3.13 (≈ 6.24 µM) | >3.2 | 97 |
| CC(=O)C1=C(C)N(c2cccc(C)c2)C(C)=C(C(C)=O)C1c1cn(-c2ccccc2)nc1-c1ccccc1 | > 10 | 6.25 (≈ 12.5 µM) | >1.6 | 98 |
| CC(=O)C1=C(C)N(c2ccc(C)cc2)C(C)=C(C(C)=O)C1c1cn(-c2ccccc2)nc1-c1ccccc1 |  |  |  | 34 |
| CC(=O)C1=C(C)N(c2ccccc2Cl)C(C)=C(C(C)=O)C1c1cn(-c2ccccc2)nc1-c1ccccc1 |  |  |  | 59 |
| CC(=O)C1=C(C)N(c2cccc(Cl)c2)C(C)=C(C(C)=O)C1c1cn(-c2ccccc2)nc1-c1ccccc1 |  |  |  | 76 |
| CC(=O)C1=C(C)N(c2ccc(Cl)cc2)C(C)=C(C(C)=O)C1c1cn(-c2ccccc2)nc1-c1ccccc1 |  |  |  | 29 |
| COc1ccccc1N1C(C)=C(C(C)=O)C(c2cn(-c3ccccc3)nc2-c2ccccc2)C(C(C)=O)=C1C |  |  |  | 25 |
| COc1cccc(N2C(C)=C(C(C)=O)C(c3cn(-c4ccccc4)nc3-c3ccccc3)C(C(C)=O)=C2C)c1 |  |  |  | 77 |
| COc1ccc(N2C(C)=C(C(C)=O)C(c3cn(-c4ccccc4)nc3-c3ccccc3)C(C(C)=O)=C2C)cc1 |  |  |  | 69 |
| NNC(=O)c1ccncc1 [ISONIAZID] |  | 0.03 (≈ 0.219 µM) |  |  |
